Reference: ChEMBL document CHEMBL1201862, “PubChem BioAssay data set” (2004)
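1) Cells in 96-well plates. 2) Compound, 48 h, 5 concentrations. 3) Linear interpolation between surrounding doses. 4) Unreached endpoint = highest concentration. GI50 marks 50% less growth.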 Activity calls are given as the source filed them. Rule as the data show it: active = GI50 up to about 1.1 µM and inactive = higher.

Experiments:
Experiment in all cases: NCI tumour cell line growth inhibition, 48 h
[1] = test system: MDA-N
[2] = test system: SK-MEL-28
[3] = test system: ACHN
[4] = test system: SK-MEL-5
[5] = test system: TK-10
[6] = test system: HOP-92
[7] = test system: BT-549
[8] = test system: SR
[9] = test system: HOP-62
[10] = test system: OVCAR-8
[11] = test system: DU-145
[12] = test system: NCI-H226
[13] = test system: MDA-MB-231
[14] = test system: LOX IMVI
[15] = test system: SW-620
[16] = test system: 786-0
[17] = test system: Hs-578T
[18] = test system: MDA-MB-435
[19] = test system: NCI-H522

| SMILES | GI50 [1] | GI50 [2] | GI50 [3] | GI50 [4] | GI50 [5] | GI50 [6] | GI50 [7] | GI50 [8] | GI50 [9] | GI50 [10] | GI50 [11] | GI50 [12] | GI50 [13] | GI50 [14] | GI50 [15] | GI50 [16] | GI50 [17] | GI50 [18] | GI50 [19] |
| --- | --- | --- | --- | --- | --- | --- | --- | --- | --- | --- | --- | --- | --- | --- | --- | --- | --- | --- | --- |
| O=S(=O)(O)c1ccc(/N=N/c2ccccc2)cc1 | > 100 µM (inactive) | > 100 µM (inactive) | > 100 µM (inactive) | > 100 µM (inactive) | > 100 µM (inactive) | > 100 µM (inactive) | > 100 µM (inactive) | > 100 µM (inactive) | > 100 µM (inactive) | > 100 µM (inactive) | > 100 µM (inactive) | > 100 µM (inactive) | > 100 µM (inactive) | > 100 µM (inactive) | > 100 µM (inactive) | > 100 µM (inactive) | > 100 µM (inactive) | > 100 µM (inactive) | > 100 µM (inactive) |
| C[C@H](c1ccccc1)n1c(N)c(-c2nc3ccccc3s2)c2ccc([N+](=O)[O-])cc2c1=O | 13.6 µM (inactive) | 3 µM (inactive) | 10.1 µM (inactive) | 4.8 µM (inactive) | 10.2 µM (inactive) | 1.59 µM (inactive) | 11.5 µM (inactive) | 1.44 µM (inactive) | 11.6 µM (inactive) | 3.83 µM (inactive) | 2.31 µM (inactive) | 4.65 µM (inactive) | 3.89 µM (inactive) | 4.46 µM (inactive) | 4.14 µM (inactive) | 9.29 µM (inactive) | 2.58 µM (inactive) | 9.66 µM (inactive) | 1.32 µM (inactive) |
| O=C(N/N=C\C=C\c1ccc([N+](=O)[O-])o1)C(=O)N/N=C\C=C\c1ccc([N+](=O)[O-])o1 | > 100 µM (inactive) | > 100 µM (inactive) | > 100 µM (inactive) | > 100 µM (inactive) | 56.9 µM (inactive) | > 100 µM (inactive) | > 100 µM (inactive) | 35.5 µM (inactive) | 82.2 µM (inactive) | 23.2 µM (inactive) | > 100 µM (inactive) | > 100 µM (inactive) | > 100 µM (inactive) | 4.94 µM (inactive) | 24.5 µM (inactive) | > 100 µM (inactive) | > 100 µM (inactive) | > 100 µM (inactive) | > 100 µM (inactive) |
| Nc1nc(-c2ccccc2)cc(-c2ccc(OCc3ccccc3)cc2O)n1 | 39.3 µM (inactive) | 89.9 µM (inactive) | 31.3 µM (inactive) | 17.5 µM (inactive) | 24.7 µM (inactive) | 38.7 µM (inactive) | 28.8 µM (inactive) | 39.8 µM (inactive) | 83.9 µM (inactive) | 29.6 µM (inactive) | 73.6 µM (inactive) | 46.1 µM (inactive) | 70.3 µM (inactive) | 33.9 µM (inactive) | 39.4 µM (inactive) | 40.9 µM (inactive) | 37.1 µM (inactive) | 34 µM (inactive) | 20.5 µM (inactive) |
| CC(C)CC(=O)NC(NC(C)C)(C(F)(F)F)C(F)(F)F | > 100 µM (inactive) | > 100 µM (inactive) | > 100 µM (inactive) | > 100 µM (inactive) | > 100 µM (inactive) | > 100 µM (inactive) | > 100 µM (inactive) | > 100 µM (inactive) | > 100 µM (inactive) | > 100 µM (inactive) | > 100 µM (inactive) | > 100 µM (inactive) | > 100 µM (inactive) | > 100 µM (inactive) | > 100 µM (inactive) | > 100 µM (inactive) | > 100 µM (inactive) | > 100 µM (inactive) | > 100 µM (inactive) |
| NC(=O)[C@H](Cc1ccc(O)cc1)NC1=C(Cl)C(=O)c2c(O)ccc(O)c2C1=O | 1.93 µM (inactive) | 2.21 µM (inactive) | 2.67 µM (inactive) | 1.47 µM (inactive) | 2.72 µM (inactive) | 2.13 µM (inactive) | 2.47 µM (inactive) | 1.34 µM (inactive) | > 10 µM (inactive) | 2.54 µM (inactive) | 6.53 µM (inactive) | > 10 µM (inactive) | 2.51 µM (inactive) | 1.61 µM (inactive) | 1.06 µM (active) | 2.02 µM (inactive) | 3.71 µM (inactive) | 2.07 µM (inactive) | 1.63 µM (inactive) |
| O=P1(O)c2ccccc2CSCc2ccccc21 | > 100 µM (inactive) | > 100 µM (inactive) | > 100 µM (inactive) | > 100 µM (inactive) | > 100 µM (inactive) | > 100 µM (inactive) | > 100 µM (inactive) | > 100 µM (inactive) | > 100 µM (inactive) | > 100 µM (inactive) | > 100 µM (inactive) | > 100 µM (inactive) | > 100 µM (inactive) | > 100 µM (inactive) | > 100 µM (inactive) | > 100 µM (inactive) | > 100 µM (inactive) | > 100 µM (inactive) | > 100 µM (inactive) |
| CNC(=O)OCCN1c2ccccc2Sc2ccccc21 | > 100 µM (inactive) | > 100 µM (inactive) | 73.6 µM (inactive) | 50.4 µM (inactive) | > 100 µM (inactive) | 50.4 µM (inactive) | > 100 µM (inactive) | > 100 µM (inactive) | 14.1 µM (inactive) | > 100 µM (inactive) | > 100 µM (inactive) | 47.9 µM (inactive) | 0.64 µM (active) | 91.6 µM (inactive) | > 100 µM (inactive) | > 100 µM (inactive) | > 100 µM (inactive) | > 100 µM (inactive) | > 100 µM (inactive) |
| O=C(/C(Cl)=C/c1ccccc1)c1ccccc1 | 1.86 µM (inactive) | 2.29 µM (inactive) | 2.24 µM (inactive) | 3.11 µM (inactive) | 3.21 µM (inactive) | 3.13 µM (inactive) | 2.22 µM (inactive) | 1.85 µM (inactive) | 19.2 µM (inactive) | 2.84 µM (inactive) | 6.32 µM (inactive) | 7.26 µM (inactive) | 5.6 µM (inactive) | 2.11 µM (inactive) | 1.84 µM (inactive) | 1.53 µM (inactive) | 3.54 µM (inactive) | 3.01 µM (inactive) | 1.58 µM (inactive) |
| CCOC(=O)[C@@H]1[C@@H]2NC(=O)N[C@@]1(C)Oc1ccccc12 | > 100 µM (inactive) | > 100 µM (inactive) | > 100 µM (inactive) | > 100 µM (inactive) | > 100 µM (inactive) | > 100 µM (inactive) | > 100 µM (inactive) | > 100 µM (inactive) | > 100 µM (inactive) | > 100 µM (inactive) | > 100 µM (inactive) | > 100 µM (inactive) | > 100 µM (inactive) | > 100 µM (inactive) | > 100 µM (inactive) | > 100 µM (inactive) | > 100 µM (inactive) | > 100 µM (inactive) | > 100 µM (inactive) |
| O=C1C(O)=C(C(C2=C(O)C(=O)c3ccccc3C2=O)c2ccc(Cl)cc2)C(=O)c2ccccc21 | 1.83 µM (inactive) | 28.1 µM (inactive) | 6.46 µM (inactive) | 6.67 µM (inactive) | 14.7 µM (inactive) | 14.3 µM (inactive) | 15.6 µM (inactive) | 3.18 µM (inactive) | 6.47 µM (inactive) | 8.75 µM (inactive) | 5.42 µM (inactive) | 28.9 µM (inactive) | 3.15 µM (inactive) | 2.64 µM (inactive) | 4.69 µM (inactive) | 3.33 µM (inactive) | 14.7 µM (inactive) | 1.83 µM (inactive) | 8.95 µM (inactive) |
